In BindingDB's records for doi:10.1016/j.bmc.2011.12.011 (University of Auckland, 2012):
pIC50: −log10 of the molar value.

biological target: T1, Perforin-1 (Homo sapiens, UniProt P14222); assay: Inhibition of recombinant perforin-mediated lysis of Jurkat cells assessed as [51Cr] release preincubated with perforin for 30 mins followed by incubation with [51Cr]-labeled Jurkat cells by gamma counting
T1 sequence (P14222 whole entry): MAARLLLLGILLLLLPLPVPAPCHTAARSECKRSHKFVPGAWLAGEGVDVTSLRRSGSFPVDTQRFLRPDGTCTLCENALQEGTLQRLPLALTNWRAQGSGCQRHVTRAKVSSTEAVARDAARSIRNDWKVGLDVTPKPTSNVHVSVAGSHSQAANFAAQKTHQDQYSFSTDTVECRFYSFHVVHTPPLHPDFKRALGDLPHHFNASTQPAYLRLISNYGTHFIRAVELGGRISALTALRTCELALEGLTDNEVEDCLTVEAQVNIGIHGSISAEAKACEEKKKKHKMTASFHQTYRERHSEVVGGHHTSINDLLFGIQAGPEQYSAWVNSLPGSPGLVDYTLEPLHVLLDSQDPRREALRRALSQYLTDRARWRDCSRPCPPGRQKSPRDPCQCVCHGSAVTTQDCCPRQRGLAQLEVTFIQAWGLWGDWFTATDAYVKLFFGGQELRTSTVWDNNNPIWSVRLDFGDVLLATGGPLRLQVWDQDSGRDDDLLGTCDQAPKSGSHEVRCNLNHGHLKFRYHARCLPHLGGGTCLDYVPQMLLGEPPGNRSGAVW

SMILES	pIC50
O=C(NCC=Cc1[nH]c(=S)[nH]c1O)c1ccc2c(c1)COC2=O	< 4.70

biological target: not listed separately; assay: Inhibition of recombinant perforin-mediated lysis of Jurkat cells assessed as [51Cr] release preincubated with perforin for 30 mins followed by incubation with [51Cr]-labeled Jurkat cells by gamma counting

SMILES	pIC50
O=C1NC(=S)SC1=Cc1ccc(-c2ccc3c(c2)COC3=O)s1	< 5.00
O=C1NC(=S)NC1=Cc1ccc(-c2ccc3c(c2)COC3=O)nc1	5.70
O=C1OCc2cc(-c3cccs3)ccc21	< 4.70
O=C(O)Cc1ccc(-c2ccc3c(c2)COC3=O)s1	< 4.70
O=C1NC(=O)C(=Cc2ccc(-c3ccc4c(c3)COC4=O)s2)C(=O)N1	6.10
O=C1NC(=S)NC1=Cc1cc2cc(-c3ccc4c(c3)COC4=O)ccc2[nH]1	6.09
O=C1NC(=O)C(=Cc2ccc(-c3ccc4c(c3)COC4=O)s2)S1	5.95
O=C1NC(=S)NC1=Cc1cc(-c2ccc3c(c2)COC3=O)ns1	5.84
O=C1OCc2cc(-c3ccc(-c4cnco4)s3)ccc21	5.50
O=C1NC(=S)NC1=Cc1ccc2cc(-c3ccc4c(c3)COC4=O)ccc2n1	6.33
O=C1NC(=S)NC1=Cc1ccc(-c2ccc3c(c2)COC3=O)s1	6.11
CN1C(=O)C(=Cc2ccc(-c3ccc4c(c3)COC4=O)s2)C(=O)N(C)C1=O	5.40
O=C1NC(=S)NC1=Cc1csc(-c2ccc3c(c2)COC3=O)n1	6.47
O=C1NC(=S)NC1=Cc1ccc(-c2ccc3c(c2)COC3=O)[nH]1	5.61
CC(=O)c1ccc(-c2ccc3c(c2)COC3=O)s1	< 4.70
O=C1NC(=S)NC1=Cc1cc2cc(-c3ccc4c(c3)COC4=O)ccc2o1	6.29
COC(=O)Cc1ccc(-c2ccc3c(c2)COC3=O)s1	< 4.70
O=Cc1ccc(-c2ccc3c(c2)COC3=O)s1	5.20
O=C1NC(=S)NC1=Cc1nc(-c2ccc3c(c2)COC3=O)cs1	5.85
O=C1NCCCC1=Cc1ccc(-c2ccc3c(c2)COC3=O)s1	4.82
O=C1NC(=S)NC(=O)C1=Cc1ccc(-c2ccc3c(c2)COC3=O)s1	6.40
